Laboratory results as given in US9751832B2, “Selective histone deactylase 6 inhibitors” (H. LEE MOFFITT CANCER CENTER AND RESEARCH INSTITUTE, INC., priority 2013, dated 2017).
Read-outs that look alike come from different tables or passages of the source.

How the values were obtained:
[1] = molecular target: HDAC6 (Homo sapiens (Human), UniProt Q9UBN7); experiment: HDAC inhibition assay, HDAC6; format: biochemical
[2] = tested on: HuT-78, murine MCL, B16 and SM1 cells; experiment: Cell viability of cancer cells (CellTiter 96 Aqueous ONE); format: cell-based, human and murine; details: 24 hrs, compared to DMSO
Protocol: Human cutaneous T-cell lymphoma (CTCL) HuT-78 (A), murine mantle cell lymphoma (MCL) (B), and murine melanoma B16 (C) and SM1 (D) cells were incubated with JB7-19, JB7-22, JB720 at different concentrations for 24 hrs. Cell viability was measured using CellTiter 96 Aqueous ONE solution (Promega, Madison, Wis.) and compared to DMSO treated control samples. Error bars represent standard deviation from triplicates.

[3] = tested on: IL-10 production in PEM and RAW264.7 cells; experiment: IL-10 production in antigen presenting cells (ELISA); format: cell-based, murine; details: 24 hrs
Protocol: Murine peritoneal elicited primary macrophages (PEM)(A) and murine RAW264.7 (B) cells were incubated with JB7-19, JB7-22, JB720 at the concentration indicated on each chart. After 24 hrs, the production of IL-10 was measured by ELISA.

[4] = tested on: acetyl-tubulin and acetyl-histone3 in human melanoma cell lines; experiment: Western blot of HDAC substrate acetylation in human melanoma cell lines; format: cell-based; details: for acetyl-tubulin and acetylation status of Histone 3: WM795 cells, 24 hrs, FIG. 47
Protocol: To confirm the selectivity of isotype specific HDACi, Western blot analysis was performed on the acetylation status of known HDAC substrates including histone H3 and H4, which are known Class I HDAC targets, and α-tubulin, a target for HDAC6. The doses required to impart the anti-proliferative effect coincided with that needed to increase acetylation of the respective HDAC substrates (FIG. 41F-41H). […] Conversely, HDAC6 selective inhibitors (HDAC6i) increase α-tubulin acetylation but not histone acetylation (FIG. 41F).

[5] = molecular target: HDAC1 (Homo sapiens (Human), UniProt Q13547); experiment: HDAC inhibition assay, HDAC1; format: biochemical
HDAC1, sequence (Q13547 whole entry): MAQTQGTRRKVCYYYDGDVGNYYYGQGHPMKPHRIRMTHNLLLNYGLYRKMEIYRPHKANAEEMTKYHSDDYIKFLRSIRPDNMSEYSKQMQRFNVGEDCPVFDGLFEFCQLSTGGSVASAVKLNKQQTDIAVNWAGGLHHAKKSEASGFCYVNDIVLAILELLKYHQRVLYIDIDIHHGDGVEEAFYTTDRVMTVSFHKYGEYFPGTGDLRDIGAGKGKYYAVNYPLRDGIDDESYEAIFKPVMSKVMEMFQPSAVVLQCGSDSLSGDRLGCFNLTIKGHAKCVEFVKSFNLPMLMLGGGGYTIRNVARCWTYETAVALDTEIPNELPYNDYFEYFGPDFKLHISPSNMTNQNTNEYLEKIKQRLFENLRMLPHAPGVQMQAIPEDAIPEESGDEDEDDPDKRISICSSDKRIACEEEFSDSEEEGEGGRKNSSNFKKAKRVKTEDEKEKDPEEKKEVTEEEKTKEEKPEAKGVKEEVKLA

[6] = tested on: B16 murine melanoma cells; experiment: B16 melanoma cell growth inhibition assay (MTS); format: cell-based; details: 48 h
Protocol: B16 murine melanoma cells were plated at 5×10^3/well in 96 well flat bottom plates. The following day, media was changed to that containing various concentrations of HDACi or matched DMSO vehicle concentrations diluted in complete medium done in triplicate. […] Briefly, 20 μL of reagent were added per well and incubated at 37° C. for 3 hours.

[7] = tested on: acetyl-α-tubulin and acetyl-H3 in B16 melanoma cells; experiment: Tubulin and histone acetylation Western blot assay; format: cell-based, murine
Protocol: […]. B16 melanoma cells were plated at 10^5 cells/well in 12 well plates and allowed to adhere overnight. A 50 mM stock of compound was then added by serial dilutions in complete medium to the indicated concentrations. Cells were incubated for 24 h under humidified conditions (37° C., 5% CO2). Wells were then washed with cold PBS, and cells were lysed in a buffer containing 10 mM Tris-HCl pH 8.0, 10% SDS, […], 100 mM DTT, and 1× protease inhibitor (Roche). Cells were lysed for 30 min on ice and then sonicated for 8 min (8 cycles of 30 s on/30 s rest). Cells were then boiled for 10 min with 6× gel loading buffer and resolved on 4-15% gradient gels and subsequently transferred onto nitrocellulose membranes. Membranes were blocked with 5% milk in PBS-T and detection of specific antigens using antibodies against acetyl-H3 and H3 (Cell Signaling), and acetyl-α-tubulin and α-tubulin (Sigma). Bands were detected by scanning blots with LI-COR Odyssey imaging system using both 700 and 800 channels.

[8] = tested on: B16 melanoma; experiment: In vivo B16 melanoma tumor growth in C57BL/6 mice; details: for Tumor growth: 25 mg/kg, intraperitoneal, three times weekly
[9] = tested on: melanoma antigens gp100, MART1, TYRP1 and TYRP2; experiment: Expression of tumor antigens in human melanoma cells (qRT-PCR); format: cell-based; details: 48 hours
Protocol: (D) Expression of tumor antigens was measured in human WM164 non-target and HDAC6KD cells. (E) Expression of tumor antigens mart-1 and gp-100 was measured by western blot.

[10] = tested on: antigen-specific T-cells; experiment: In vivo antigen-specific T-cell response to vaccination; design: species or system mice; details: in vivo treatment
[11] = tested on: NRAS and BRAF mutant human melanoma cell lines; experiment: Cell proliferation of human melanoma cell lines (MTS, 24 h); format: cell-based
Protocol: Cell proliferation was evaluated using various pan- and isotype selective HDACi in a broad panel of human melanoma cell lines. Briefly, cells were plated at 10×10^3/well in a 96 well flat bottom plate. The following day, media was changed to that containing different concentrations of HDACi or matched DMSO vehicle concentrations diluted in complete medium done in triplicate, all with a final concentration of less than 0.1% DMSO. Cells were incubated for 24 hours at 37° C. and 5% CO2. […] All values were then normalized and expressed as a percentage of medium control growth.

[12] = tested on: MHC expression on melanoma cells; experiment: Surface marker analysis of melanoma cells by flow cytometry; format: cell-based, human and murine; details: 3 μM, 48 hours, B16 and WM793
Protocol: For surface marker analysis melanoma cells were treated with TubastatinA or DMSO for 48 hrs, and/or using Non target and HDAC6KD cell lines, Cells were singly stained with phycoerythryn (PE) conjugated antibodies against MHC I, MHC II, CD40, CD80, CD86. Conjugated antibodies were purchases from eBioscience (San Diego, Calif., USA). After staining for 30 minutes at 4° C., cells were washed three times and then resuspended in buffer containing DAPI (50 ng/mL) for viability. At least 10,000 events were collected using an LSR II (BD) and subsequently analyzed using FlowJo software.2.2.7.

[13] = tested on: macrophages; experiment: Tubastatin A treatment of macrophages (APCs) in vitro; format: cell-based
[14] = tested on: JAK2/STAT3 phosphorylation in B16 murine melanoma cells; experiment: JAK2/STAT3 phosphorylation in B16 melanoma in vivo
[15] = tested on: STAT3 phosphorylation in APCs; experiment: STAT3 phosphorylation and recruitment to the IL-10 gene promotor in APCs; format: cell-based
[16] = tested on: MCL; experiment: In vivo treatment of MCL-bearing mice
[17] = tested on: B16 WT melanoma; experiment: In vivo B16 melanoma tumor growth in SCID mice
From the text: To further characterize the relative contribution of anti-tumor immunity, specific subsets of cells were depleted via antibody depletion, which was confirmed by staining leukocytes from spleen. […] Taken together, these observations support the anti-melanoma activity of a functional immune system after HDAC6 inhibition.

[18] = tested on: human melanoma cell lines; experiment: Cell cycle analysis by propidium iodide staining; format: cell-based; details: FACS
Protocol: Cells were treated with indicated doses of HDAC inhibitors or DMSO control and then trypsinized, washed, and rendered into a single cell suspension in 1 mL of DPBS. 4 mL ice cold 200 proof ethyl alcohol was added dropwise while vortexing to fix cells. Samples were washed and resuspended in 75% ethanol solution overnight. Then, cells were washed in PBS+0.1% Triton X-100 and counted. Equal numbers of cells were then stained in a solution containing 10 μg/mL RNAseA+1 μg/mL propidium iodide for 2 hours at room temperature. Data was then acquired using a FACSCaliber with at least 10,000 events collected. Cell cycle analysis was completed using ModFit LT (Verity Software House, Topsham, Me.).

[19] = Table 1B, read-out: IC50 (μM) HDAC6
[20] = Table 1B, read-out: IC50 (μM) HDAC1
[21] = Table 2, cyclic urea compounds, read-out: HDAC6 IC50
[22] = Table 2, cyclic urea compounds, read-out: HDAC1 IC50

HDAC6, sequence (Q9UBN7 whole entry): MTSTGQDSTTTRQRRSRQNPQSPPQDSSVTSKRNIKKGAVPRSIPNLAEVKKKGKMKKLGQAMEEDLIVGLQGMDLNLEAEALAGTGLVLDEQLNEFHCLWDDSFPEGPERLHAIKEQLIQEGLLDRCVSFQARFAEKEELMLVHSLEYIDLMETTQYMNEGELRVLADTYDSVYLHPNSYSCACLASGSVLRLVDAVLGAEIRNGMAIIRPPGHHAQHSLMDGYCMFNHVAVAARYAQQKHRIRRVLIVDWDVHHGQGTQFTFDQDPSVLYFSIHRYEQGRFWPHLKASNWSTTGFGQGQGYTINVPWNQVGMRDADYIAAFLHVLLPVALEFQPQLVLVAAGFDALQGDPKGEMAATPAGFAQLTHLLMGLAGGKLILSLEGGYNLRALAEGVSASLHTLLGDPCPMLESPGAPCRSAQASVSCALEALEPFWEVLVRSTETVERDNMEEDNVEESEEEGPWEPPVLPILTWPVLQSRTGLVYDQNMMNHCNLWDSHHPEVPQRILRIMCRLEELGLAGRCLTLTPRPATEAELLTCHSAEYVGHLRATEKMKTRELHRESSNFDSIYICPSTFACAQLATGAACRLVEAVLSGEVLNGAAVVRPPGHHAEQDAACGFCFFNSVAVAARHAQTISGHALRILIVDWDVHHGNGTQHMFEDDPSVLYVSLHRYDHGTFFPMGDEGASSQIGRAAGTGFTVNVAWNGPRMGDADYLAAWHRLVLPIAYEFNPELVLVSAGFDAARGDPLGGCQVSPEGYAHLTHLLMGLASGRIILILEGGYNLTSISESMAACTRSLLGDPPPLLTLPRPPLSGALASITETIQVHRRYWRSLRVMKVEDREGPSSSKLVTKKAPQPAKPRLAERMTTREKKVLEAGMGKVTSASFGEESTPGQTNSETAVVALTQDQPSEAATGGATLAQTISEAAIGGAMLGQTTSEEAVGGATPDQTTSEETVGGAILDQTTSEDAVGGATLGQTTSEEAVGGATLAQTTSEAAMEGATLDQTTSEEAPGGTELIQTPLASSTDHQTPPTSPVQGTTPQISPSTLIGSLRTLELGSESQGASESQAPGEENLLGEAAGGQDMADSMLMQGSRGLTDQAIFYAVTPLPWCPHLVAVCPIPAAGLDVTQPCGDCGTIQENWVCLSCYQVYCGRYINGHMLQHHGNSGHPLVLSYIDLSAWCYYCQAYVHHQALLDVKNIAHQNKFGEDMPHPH

Q: What does the source list for CCCCN(Cc1ccc(C(=O)NO)cc1)C(=O)Nc1ccc2cn[nH]c2c1 [JB7-19, 4-((1-butyl-3-(1H-indazol-6-yl)ureido)methyl)-N-hydroxybenzamide]?
A: Selectivity (HDAC1/−6) ([1]; Table 1B): 284; IC50 [1, 19]: 0.00254 µM; Cell proliferation of cancer cells [2]: decrease cell proliferation; IL-10 production in antigen presenting cells [3]: inhibit IL-10 production; acetyl-tubulin and acetylation status of Histone 3 [4]: increase acetyl-tubulin without modifying the acetylation status of Histone 3; IC50 [5, 20]: 0.721 µM

Q: How did the “Growth inhibition of B16 melanoma cells (in words)” value (shortened to “Growth inhibition”) [6] turn out when O=C(NO)c1ccc(CN(CCc2ccccc2)C(=O)Nc2ccccc2)cc1 [Compound 5h, N-hydroxy-4-((1-phenethyl-3-phenylureido)methyl)benzamide] was run?
A: capable of inhibiting the growth

Q: CC(C)[C@@H]1C(=O)N(c2ccccc2)C(=O)N1Cc1ccc(C(=O)NO)cc1 [Compound 10b] was tested. Which “Fold Selective (HDAC1/HDAC6)” value ([1]; Table 2, cyclic urea compounds) did it give?
A: 531 fold

Q: What about the IC50 [1, 21] of the same compound?
A: 0.0222 µM

Q: And the IC50 [5, 22]?
A: 11.8 µM

Q: With CCCCN(Cc1ccc(C(=O)NO)cc1)C(=O)Nc1ccccc1 [Compound 5g, 4-((1-butyl-3-phenylureido)methyl)-N-hydroxybenzamide] as the compound, how does the “histone H3 acetylation” value ([7]; concentrations of 1 and 10 μM) read?
A: observable increase

Q: What about the “acetyl α-tubulin levels” value ([7]; low nanomolar treatment, 24 h) of the same compound?
A: dose-dependant increase

Q: And the “histone H3 acetylation” value ([7]; low nanomolar treatment, 24 h)?
A: without a concamanent elevation

Q: And the Tumor growth [8]?
A: delayed tumor growth

Q: And the “Expression of melanoma antigens at the mRNA level” value [9]?
A: upregulation of melanoma antigens

Q: What about the “Growth inhibition” value [6] of the same compound?
A: capable of inhibiting the growth

Q: What about the “acetyl-tubulin and acetylation status of Histone 3” value [4] of the same compound?
A: increase acetyl-tubulin without modifying the acetylation status of Histone 3

Q: With COc1ccccc1NC(=O)N(CCCO)Cc1ccc(C(=O)NO)cc1 [Compound 5b, N-hydroxy-4-((1-(3-hydroxypropyl)-3-(2-methoxyphenyl)ureido)methyl)-benzamide] as the compound, how does the “Growth inhibition” value [6] read?
A: performed very poorly

Q: Which Tumor growth [8] does the source give for CN1CCc2c(c3ccccc3n2Cc2ccc(C(=O)NO)cc2)C1 [Tubastatin A] here?
A: delayed tumor growth

Q: And the “Anti-melanoma effect in vivo” value ([8]; alone or in combination with anti-CLTA4)?
A: anti-melanoma effect

Q: And the “Antigen-specific T-cell responses to vaccination” value [10]?
A: enhances antigen-specific T-cell responses

Q: And the “Inhibition of proliferation, effective concentration range (in words)” value [11]?
A: low micromolar range

Q: What about the “Expression of MHC I” value [12] of the same compound?
A: increase of MHC1

Q: And the “T-cell activation by treated macrophages” value ([13]; in vitro)?
A: better activators of naIve T-cells

Q: And the “Expression of co-stimulatory molecules” value ([13]; macrophages)?
A: increased the expression of co-stimulatory molecules

Q: What about the IL-10 production ([13]; macrophages) of the same compound?
A: inhibits IL-10 production

Q: And the JAK2/STAT3 phosphorylation [14]?
A: inhibits JAK2/STAT3 phosphorylation

Q: What about the STAT3 phosphorylation [15] of the same compound?
A: decreased STAT3 phosphorylation

Q: What about the “Expression of melanoma antigens at the mRNA level” value [9] of the same compound?
A: upregulation of melanoma antigens

Q: What about the Antitumor effect [16] of the same compound?
A: strong antitumor effect

Q: What about the “acetyl-tubulin and acetylation status of Histone 3” value [4] of the same compound?
A: increase acetyl-tubulin without modifying the acetylation status of Histone 3

Q: COc1ccccc1NC(=O)NCc1ccc(C(N)=O)cc1 [Compound 1] was tested. Which IC50 ([1]; Table 1A, mean of two experiments ± standard deviation, read-out: HDAC6 IC50) did it give?
A: 0.139 ± 0.027 µM

Q: What about the IC50 ([5]; Table 1A, mean of two experiments ± standard deviation, read-out: HDAC1 IC50) of the same compound?
A: 0.265 ± 0.059 µM

Q: With Nexturastat B as the compound, how does the “In vivo growth of B16 WT melanoma compared with control treatment” value [17] read?
A: not significantly different

Q: With CCCCN(Cc1ccc(C(=O)NO)cc1)C(=O)Nc1ncccn1 [JB6-22, 4-((1-butyl-3-(pyrimidin-2-yl)ureido)methyl)-N-hydroxybenzamide] as the compound, how does the “Selectivity (HDAC1/−6)” value ([1]; Table 1B) read?
A: 281

Q: What about the IC50 [1, 19] of the same compound?
A: 0.00976 µM

Q: And the “Cell proliferation of cancer cells” value [2]?
A: decrease cell proliferation

Q: What about the “IL-10 production in antigen presenting cells” value [3] of the same compound?
A: inhibit IL-10 production

Q: What about the “acetyl-tubulin and acetylation status of Histone 3” value [4] of the same compound?
A: increase acetyl-tubulin without modifying the acetylation status of Histone 3

Q: What about the IC50 [5, 20] of the same compound?
A: 2.74 µM

Q: For CCCCN(Cc1ccc(C(=O)NO)cc1)C(=O)Nc1cccc(N(C)C)c1 [JB7-20], which “Selectivity (HDAC1/−6)” value ([1]; Table 1B) is on record?
A: 99

Q: How did the “Fold Selective (HDAC1/HDAC6)” value ([1]; Table 1A) turn out when COCCCN(Cc1ccc(C(=O)NO)cc1)C(=O)Nc1ccccc1 [Compound 5e, N-hydroxy-4-((1-(3-methoxypropyl)-3-phenylureido)methyl)benzamide] was run?
A: > 400 fold

Q: What does the source list for COc1ccccc1N1C(=O)N(Cc2ccc(C(=O)NO)cc2)C(C)(C)C1=O [Compound 10a]?
A: Fold Selective (HDAC1/HDAC6) ([1]; Table 2, cyclic urea compounds): 386 fold; IC50 [1, 21]: 0.0742 µM; IC50 [5, 22]: 28.6 µM

Q: What does the source list for Nc1ccccc1NC(=O)c1ccc(CNc2nccc(-c3cccnc3)n2)cc1 [MGCD0103]?
A: Inhibition of proliferation, effective concentration range (in words) [11]: low micromolar range; Cell cycle effects [18]: variable cell cycle effects; acetylation of α-tubulin ([4]; Western blot, FIG. 41): unchanged

Q: For O=C(NO)c1ccc(CN2C(=O)N[C@@H](Cc3ccccc3)C2=O)cc1 [Compound 11a], which “Fold Selective (HDAC1/HDAC6)” value ([1]; Table 2, cyclic urea compounds) is on record?
A: 295 fold

Q: And the IC50 [1, 21]?
A: 0.0256 µM

Q: What about the IC50 [5, 22] of the same compound?
A: 7.56 µM
